What all share (assay type): biochemical
Test [1] has as its target CDK2/Cyclin A complex (Homo sapiens, UniProt P24941). The test is described as follows: CDK2/Cyclin A assay. The note with it: 1.0 μM; combinatorial library compounds. In a few lines: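 Radiometric assay: 150 nM CDK2/cyclin A (insect-cell CDK2, truncated cyclin A) phosphorylates His-tagged Rb fragment (residues 386-928) with 25 μM ATP plus [32P]ATP, pH 7.4 HEPES, 2% DMSO, 30 °C for 20 min. Filter-captured product counted by phosphorimager; apparent Ki from competitive or tight-binding inhibition fits.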

Test [2] has as its target T1, FL-CHK1 (Homo sapiens, UniProt O14757).
T1 construct: C-terminally His-tagged full-length human CHK1 (FL-CHK1); 6xHis (C); made in house; host or cells: baculovirus/insect cells
T1 sequence (O14757 1-476): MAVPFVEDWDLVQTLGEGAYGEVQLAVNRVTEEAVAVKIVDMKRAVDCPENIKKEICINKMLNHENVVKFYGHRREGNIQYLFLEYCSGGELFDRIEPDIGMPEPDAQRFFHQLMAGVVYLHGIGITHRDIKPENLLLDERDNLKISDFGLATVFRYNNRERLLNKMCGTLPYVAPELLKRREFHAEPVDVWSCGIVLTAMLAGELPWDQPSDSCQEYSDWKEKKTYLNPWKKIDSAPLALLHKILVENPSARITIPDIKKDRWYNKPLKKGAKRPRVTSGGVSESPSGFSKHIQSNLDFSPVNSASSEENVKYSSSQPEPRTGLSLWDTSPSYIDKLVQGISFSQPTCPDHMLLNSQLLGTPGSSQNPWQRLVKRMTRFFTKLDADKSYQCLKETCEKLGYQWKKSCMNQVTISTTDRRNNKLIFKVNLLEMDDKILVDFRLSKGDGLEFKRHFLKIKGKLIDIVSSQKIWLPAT
The test is described as follows: CHK1 assay. The following applies: 20 μM; combinatorial library compounds. A digest of the protocol:
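Full-length human CHK1 with C-terminal 6×His tag, made in baculovirus/insect cells, 10 nM, phosphorylating 0.125 mM Syntide-2 with 0.15 mM ATP in 50 mM Tris pH 7.5, 25 mM MgCl2, 400 mM NaCl. PK/LDH-coupled NADH oxidation read at 340 nm. Ki from initial rates over varied compound concentrations.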

For test [3], the target named is T2, phosphorylated VEGF-R2Δ50 (FLVK-P) (Homo sapiens, UniProt P35968, DEL940-989/E990V).
T2 construct: VEGF-R2Δ50 contains residues 806-939 and 990-1171; made in house; host or cells: baculovirus/insect cells
T2 sequence (P35968 with tags, fused parts or gaps DEL940-989/E990V limits assumed): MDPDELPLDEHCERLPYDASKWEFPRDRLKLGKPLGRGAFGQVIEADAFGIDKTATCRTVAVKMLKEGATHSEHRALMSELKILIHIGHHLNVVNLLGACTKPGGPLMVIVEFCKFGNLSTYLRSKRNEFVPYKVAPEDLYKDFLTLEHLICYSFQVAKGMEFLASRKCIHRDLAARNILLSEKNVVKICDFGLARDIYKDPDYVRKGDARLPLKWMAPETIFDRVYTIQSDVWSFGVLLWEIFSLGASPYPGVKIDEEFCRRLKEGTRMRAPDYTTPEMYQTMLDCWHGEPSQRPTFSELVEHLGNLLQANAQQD
The test is described as follows: VEGF-R2 coupled spectrophotometric (FLVK-P) assay. The note with it: read-out: VEGF % inhibition at 20 μM, 20 μM; combinatorial library compounds. In a few lines: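 Baculovirus-expressed human VEGF-R2Δ50 (residues 806-939/990-1171, E990V) was autophosphorylated with 3 mM ATP, 40 mM MgCl2 for 2 h at 4° C. ADP formation was coupled via PK/LDH to NADH oxidation, read at 340 nm, with 5.1 mM poly(E4Y1), 1 mM ATP, 25 mM MgCl2, Hepes pH 7.5. Ki came from activity across compound concentrations.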

Test [4] deals with T3, CDK4/Cyclin D3 complex (Homo sapiens, UniProt P11802).
T3 construct: made in house; host or cells: insect cells co-infected with baculovirus vectors
T3 sequence (P11802 whole entry): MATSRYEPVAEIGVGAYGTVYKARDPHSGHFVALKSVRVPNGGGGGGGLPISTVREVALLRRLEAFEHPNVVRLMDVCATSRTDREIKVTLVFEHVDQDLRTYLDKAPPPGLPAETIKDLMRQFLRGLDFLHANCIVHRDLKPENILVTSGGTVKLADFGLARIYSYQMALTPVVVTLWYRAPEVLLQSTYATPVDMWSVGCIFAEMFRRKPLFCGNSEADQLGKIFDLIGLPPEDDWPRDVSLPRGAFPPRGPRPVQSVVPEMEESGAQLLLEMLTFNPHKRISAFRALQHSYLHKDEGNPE
T3 sequence (P30281 whole entry partner): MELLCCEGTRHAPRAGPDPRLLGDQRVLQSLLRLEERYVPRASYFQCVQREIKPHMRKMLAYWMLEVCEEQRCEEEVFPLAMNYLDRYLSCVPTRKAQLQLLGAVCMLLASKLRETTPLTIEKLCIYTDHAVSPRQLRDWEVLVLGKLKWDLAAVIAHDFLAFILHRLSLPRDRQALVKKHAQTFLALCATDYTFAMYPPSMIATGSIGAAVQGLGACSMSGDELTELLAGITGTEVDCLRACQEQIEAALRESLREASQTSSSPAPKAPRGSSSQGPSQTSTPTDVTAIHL
The test is described as follows: CDK4/Cyclin D assay. The note with it: 1.0 μM; combinatorial library compounds. The method, then:
CDK4/Cyclin D Construct for Assay: A complex of human CDK4 and cyclin D3, or a complex of cyclin DI and a fusion protein of human CDK4 and glutathione-S-transferase (GST-CDK4), was purified using traditional biochemical chromatographic techniques from insect cells that had been co-infected with the corresponding baculovirus expression vectors.
CDK2/Cyclin A and CDK4/Cyclin D Assays
Cyclin-dependent kinase activity was measured by quantifying the enzyme-catalyzed, time-dependent incorporation of radioactive phosphate from [^32P]ATP into a recombinant fragment of the retinoblastoma protein. Unless noted otherwise, assays were performed in 96-well plates in a total volume of 50 μL, in the presence of 10 mM HEPES (N-[2-hydroxyethyl]piperazine-N′-[2-ethanesulfonic acid]) (pH 7.4), 10 mM MgCl2, 25 μM adenosine triphosphate (ATP), 1 mg/mL ovalbumin, 5 μg/mL leupeptin, 1 mM dithiothreitol, 10 mM β-glycerophosphate, 0.1 mM sodium vanadate, 1 mM sodium fluoride, 2.5 mM ethylene glycol-bis(β-aminoethyl ether)-N,N,N′N′-tetraacetic acid (EGTA), 2% (v/v) dimethylsulfoxide, and 0.03-0.2 μCi [^32P]ATP. The substrate (0.3-0.5 μg) was purified recombinant retinoblastoma protein fragment (Rb) (residues 386-928 of the native retinoblastoma protein; 62.3 kDa, containing the majority of the phosphorylation sites found in the native 106-kDa protein, as well as a tag of six histidine residues for ease of purification). Reactions were initiated with CDK2 (150 nM CDK2/Cyclin A complex) or CDK4 (50 nM CDK4/Cyclin D3 complex), incubated at 30° C., and terminated after 20 minutes by the addition of ethylenediaminetetraacetic acid EDTA) to 250 mM. The phosphorylated substrate was then captured on a nitrocellulose membrane using a 96-well filtration manifold, and unincorporated radioactivity was removed by repeated washing with 0.85% phosphoric acid. Radioactivity was quantified by exposing the dried nitrocellulose membranes to a phosphorimager. Apparent Ki values were measured by assaying enzyme activity in the presence of different compound concentrations and subtracting the background radioactivity measured in the absence of enzyme. The kinetic parameters (kcat, Km for ATP) were measured for each enzyme under the usual assay conditions by determining the dependence of initial rates on ATP concentration. The data were fit to an equation for competitive inhibition using Kaleidagraph (Synergy Software), or were fit to an equation for competitive tight-binding inhibition using the software KineTic (BioKin, Ltd.). Measured Ki values for known inhibitors against CDK4 and CDK2 agreed with published IC50 values. The specific activity of CDK4 was the same whether complexed to full-length cyclin D3 or the truncated Cyclin D3 construct; both complexes also yielded very similar Ki values for selected inhibitors.

For `COc1ccccc1-c1csc(-c2sc(Nc3ccc(S(N)(=O)=O)cc3)nc2N)n1` [drawing 394], the inhibition at 1 µM in test [1] stood at 18.9%; in test [4], 16%. In addition, the inhibition at 20 µM is 18.7% in test [2] and 21% in test [3].
For `CC(C)c1ccc(Nc2nc(N)c(-c3nc(-c4ccc(Cl)cc4)cs3)s2)cc1`, the values for the inhibition at 1 µM in test [1] and in test [4] were 10.8% and 53.1%, respectively. Also, the values for the inhibition at 20 µM in test [2] and in test [3] were -0.2% and -2%, respectively.
The corresponding values for `CN(C)c1ccc(Nc2nc(N)c(-c3nc(-c4cc(-c5ccc(Cl)c(Cl)c5)no4)cs3)s2)cc1` are 12.6%, -17.5%, -2.8% and 1%.
The corresponding values for `CC(C)c1ccc(Nc2nc(N)c(-c3nc(-c4ccc(O)cc4)cs3)s2)cc1` are 10.5%, 77%, 25% and 49%.
The corresponding values for `Cc1ccc(-c2csc(-c3sc(Nc4ccc(N(C)C)cc4)nc3N)n2)c(C)c1` are 16.1%, 23.3%, -0.9% and 21%.
As for `Nc1nc(Nc2ccc(S(N)(=O)=O)cc2)sc1-c1nc(-c2ccc3oc4ccccc4c3c2)cs1`, the inhibition at 1 µM in test [1] turned out to be 45.7%; in test [4], 57.5%. Further, the results for the inhibition at 20 µM in test [2] and in test [3] were 18.3% and 18%, respectively.
The like results for `CCN(CC)c1ccc(-c2csc(-c3sc(Nc4ccc(N(C)C)cc4)nc3N)n2)cc1` were, in that order, 14.6%, 57.8%, 17.4% and 16%.
The corresponding values for `Cc1cc(-c2csc(-c3sc(Nc4ccc(N(C)C)cc4)nc3N)n2)ccc1Cl` are 11.7%, 15.2%, 16.6% and 2%.
The like results for `Nc1nc(Nc2ccc(S(N)(=O)=O)cc2)sc1-c1nc(-c2ccc(Cl)cc2Cl)cs1` [drawing 406] were, in that order, 63%, 79.2%, 14.7% and 32%.
Consider `Nc1nc(Nc2ccc(S(N)(=O)=O)cc2)sc1-c1nc(-c2cccc(Br)c2)cs1`, for which the values for the inhibition at 1 µM in test [1] and in test [4] were 17.6% and -0.3%, respectively. The inhibition at 20 µM amounted to 16.4% in test [2] and 15% in test [3].
The like results for `Nc1nc(Nc2ccc(S(N)(=O)=O)cc2)sc1-c1nc(-c2cc(Br)c(Cl)s2)cs1` were, in that order, 60.5%, 56.4%, 7.9% and 6%.
As to `Nc1nc(Nc2ccc(S(N)(=O)=O)cc2)sc1-c1nc(-c2cc(-c3ccc(Cl)c(Cl)c3)no2)cs1`, the inhibition at 1 µM in test [1] was 16.1%; in test [4], -31.3%. For the same compound, the inhibition at 20 µM in test [2] was 0.5%; in test [3], -5%.
Turning to `CN(C)c1ccc(Nc2nc(N)c(-c3nc(-c4csc5ccccc45)cs3)s2)cc1`, the inhibition at 1 µM in test [1] was determined as 23.5%; in test [4], 57.7%. The inhibition at 20 µM worked out at 12.6% in test [2] and 22% in test [3].
The corresponding values for `CN(C)c1ccc(Nc2nc(N)c(-c3nc(-c4cc5cc(Cl)ccc5o4)cs3)s2)cc1` are 16.9%, 29.6%, 7.6% and -3%.
On to `COc1ccc(OC)c(-c2csc(-c3sc(Nc4ccc(S(N)(=O)=O)cc4)nc3N)n2)c1`, for which the inhibition at 1 µM was determined as 28.4% in test [1] and 41.2% in test [4]. Also, the figures for the inhibition at 20 µM in test [2] and in test [3] were -2.3% and 8%, respectively.
The corresponding values for `CCOC(=O)c1cc(-c2csc(-c3sc(Nc4ccc(S(N)(=O)=O)cc4)nc3N)n2)on1` are 29.8%, -13%, 1.1% and 3%.
The corresponding values for `CC(C)c1ccc(Nc2nc(N)c(-c3nc(-c4ccc(OC(=O)c5ccccc5)cc4)cs3)s2)cc1` are 73%, 45.9%, 7.5% and -4%.
The corresponding values for `CN(C)c1ccc(Nc2nc(N)c(-c3nc(-c4ccc(F)c(F)c4)cs3)s2)cc1` are 3.3%, 8.1%, 4.2% and 8%.
As to `Nc1nc(Nc2ccc(S(N)(=O)=O)cc2)sc1-c1nc(-c2c(Cl)c(Cl)nc(Cl)c2Cl)cs1`, the inhibition at 1 µM in test [1] came to 66.8%; in test [4], 58%. Moreover, the inhibition at 20 µM in test [2] turned out to be 19.8%; in test [3], 11%.
The like results for `Nc1nc(Nc2ccc(S(N)(=O)=O)cc2)sc1-c1nc(-c2ccc(-c3ccc(Cl)cc3Cl)o2)cs1` were, in that order, 21.4%, 25%, 3.3% and -2%.
Turning to `Cc1onc(-c2ccccc2)c1-c1csc(-c2sc(Nc3ccc(C(C)C)cc3)nc2N)n1`, the results for the inhibition at 1 µM in test [1] and in test [4] were 11.1% and 49.8%, respectively. For the same compound, the inhibition at 20 µM was -0.9% in test [2] and 5% in test [3].
The corresponding values for `Cc1c(C)c(C)c(-c2csc(-c3sc(Nc4ccc(N(C)C)cc4)nc3N)n2)c(C)c1C` are 33.9%, 62.7%, 37% and 33%.
The corresponding values for `CN(C)c1ccc(Nc2nc(N)c(-c3nc(-c4ccc(OC(=O)c5ccccc5)cc4)cs3)s2)cc1` are 8.7%, 49.4%, 5.5% and -4%.

Broadly, the inhibition is the change of the read-out against control, counted positive when it falls.
